The source of these data is patent US20220117912A1, “L-PIPECOLIC ACID COCRYSTAL OF CANNABIDIOL” (EBERS TECH INC., priority 2019, published 2022).

The nature of data set [1]: Visual water solubility test of the cocrystal (0.6 mg in 3 mL water, shaken and sonicated). It counts as physicochemical. Here is the method: 0.6 mg of the cocrystal was placed in a glass vial and 3 mL of water was added. The slurry was immediately shaken and sonicated.
Data set [2] is described as follows: Exposure to relative humidity (RH) stress, XRPD afterwards. The class given is physicochemical. The following applies: 95% RH for 8 days. The text has this:
X-Ray Powder Diffraction (XRPD): The Rigaku Smart-Lab X-ray diffraction system was configured for reflection Bragg-Brentano geometry using a line source X-ray beam. The x-ray source is a Cu Long Fine Focus tube that was operated at 40 kV and 44 ma. That source provides an incident beam profile at the sample that changes from a narrow line at high angles to a broad rectangle at low angles. Beam conditioning slits are used on the line X-ray source to ensure that the maximum beam size is less than 10 mm both along the line and normal to the line. The Bragg-Brentano geometry is a para-focusing geometry controlled by passive divergence and receiving slits with the sample itself acting as the focusing component for the optics. The inherent resolution of Bragg-Brentano geometry is governed in part by the diffractometer radius and the width of the receiving slit used. Typically, the Rigaku Smart-Lab is operated to give peak widths of 0.1° 2θ or less. The axial divergence of the X-ray beam is controlled by 5.0-degree Soller slits in both the incident and diffracted beam paths. […] Each sample was analyzed from 2 to 40° 2θ using a continuous scan of 6° 2θ per minute with an effective step size of 0.02° 2θ. In the case of high resolution XRPD, samples were analyzed with a scan rate of 1° 2θ per minute with a sample spin rate of 50 rpm. […]

The structures appear in SMILES notation.

In the case of `C=C(C)[C@@H]1CCC(C)=C[C@H]1c1c(O)cc(CCCCC)cc1O.O=C(O)[C@@H]1CCCCN1` [1:1 cannabidiol:L-pipecolic acid cocrystal], the “Visual dissolution in water” value in data set [1] (0.6 mg of cocrystal in 3 mL of water, shaken and sonicated) is “none of the solid dissolved”. The Water solubility entry in data set [1] (water) is “less than 0.2 mg/mL”. Further, the “Solid-form stability under humidity stress (XRPD pattern after stress)” value in data set [2] was “cocrystal disassociated during the experiment”.
